Assay [1] has as its system Candida albicans. Put plainly: Antifungal activity against azole-resistant Candida albicans 64124 incubated for 24 to 36 hrs by two fold dilution method. In kind it is functional.
Assay [2] relates to Candida albicans. Briefly: Antifungal activity against azole-susceptible Candida albicans MYA2876 incubated for 24 to 36 hrs by two fold dilution method. Format: functional.
For assay [3], the system named is Cryptococcus neoformans. Briefly: Antifungal activity against Cryptococcus neoformans H99 incubated for 24 to 36 hrs by two fold dilution method. Format: functional.
For assay [4], the system named is Cryptococcus neoformans. Put plainly: Antifungal activity against Cryptococcus neoformans VR-54 incubated for 24 to 36 hrs by two fold dilution method. In kind it is functional.
For assay [5], the system named is Rhodotorula mucilaginosa. Put plainly: Antifungal activity against Rhodotorula pilimanae ATCC 26423 incubated for 24 to 36 hrs by two fold dilution method. Format: functional.
For assay [6], the system named is Fusarium graminearum. Put plainly: Antifungal activity against Fusarium graminearum B4-5A incubated for 24 to 36 hrs by two fold dilution method. Format: functional.
Assay [7] deals with Escherichia coli. Put plainly: Antibacterial activity against Escherichia coli ATCC 25922 incubated for 18 hrs by two fold dilution method. In kind it is functional. The conditions noted are these: ATCC 25922, 18 h.
Assay [8] deals with Staphylococcus aureus. Put plainly: Antibacterial activity against Staphylococcus aureus ATCC 25923 incubated for 18 hrs by two fold dilution method. Format: functional. Particulars: ATCC 25923, 18 h.
In assay [9] the test system is Staphylococcus aureus. Briefly: Antibacterial activity against methicillin-resistant Staphylococcus aureus ATCC 33591 incubated for 18 hrs by two fold dilution method. Particulars: ATCC 33591, 18 h. In kind it is functional.
Assay [10] concerns Staphylococcus aureus. Put plainly: Antibacterial activity against methicillin-resistant Staphylococcus aureus ATCC 43300 incubated for 18 hrs by two fold dilution method. The conditions noted are these: ATCC 43300, 18 h. Format: functional.
For assay [11], the system named is HeLa. Briefly: Cytotoxicity against human HeLa cells assessed as reduction in cell viability incubated for 24 hrs by MTT assay. Format: cell-based.
The test system of assay [12] is Candida albicans. Put plainly: Induction of membrane permeabilization in azole-resistant Candida albicans 64124 at 1/4 times MIC incubated for 5 mins by phase contrast microscopic method. Format: functional, organism-based.
The subject of assay [13] is Candida albicans. Briefly: Induction of membrane permeabilization in azole-susceptible Candida albicans MYA2876 at 1/4 times MIC incubated for 5 mins by phase contrast microscopic method. Format: functional, organism-based.
For assay [14], the system named is Escherichia coli. Put plainly: Induction of membrane permeabilization in Escherichia coli ATCC 25922 at MIC incubated for 5 mins by phase contrast microscopic method. Format: functional, organism-based.
The subject of assay [15] is Staphylococcus aureus. Put plainly: Induction of membrane permeabilization in Staphylococcus aureus at 1/2 times MIC incubated for 5 mins by phase contrast microscopic method. In kind it is functional, organism-based.
The test system of assay [16] is Escherichia coli. Put plainly: Induction of membrane permeabilization in Escherichia coli ATCC 25922 at MIC incubated for 60 mins by phase contrast microscopic method. In kind it is functional, organism-based.
For assay [17], the system named is Staphylococcus aureus. Put plainly: Induction of membrane permeabilization in Staphylococcus aureus at 1/2 times MIC incubated for 60 mins by phase contrast microscopic method. In kind it is functional, organism-based.
The subject of assay [18] is Candida albicans. Briefly: Antifungal activity against Candida albicans B-311 incubated for 24 to 36 hrs by two fold dilution method. In kind it is functional.
Assay [19] concerns Diutina rugosa. Put plainly: Antifungal activity against Candida rugosa 95-967 incubated for 24 to 36 hrs by two fold dilution method. In kind it is functional.
Assay [20] concerns Candida parapsilosis. Put plainly: Antifungal activity against azole-resistant Candida parapsilosis Cas08-0490 incubated for 24 to 36 hrs by two fold dilution method. In kind it is functional. The conditions noted are these: Lodderomyces parapsilosis.
The test system of assay [21] is Candida tropicalis. Briefly: Antifungal activity against Candida tropicalis 95-41 incubated for 24 to 36 hrs by two fold dilution method. Format: functional.

Molecules are shown by their SMILES. Active and inactive are the calls of the source. The calls are words filed in the database; no cut-off is given here.

For orientation: MIC means the lowest concentration found to suppress growth. Higher therefore signals a need for much substance. The IC50 is the concentration needed to halve the response being measured. Turning to `Cl.Cl.Cl.Cl.NC[C@H]1O[C@H](O[C@H]2[C@H](O)[C@@H](O[C@H]3O[C@H](CNC(=O)c4ccccc4-c4c5ccc(=O)cc-5oc5cc(O)ccc45)[C@@H](O)[C@H](N)[C@H]3O)[C@H](N)C[C@@H]2N)[C@H](O)[C@@H](O)[C@@H]1O`, the MIC in assay [1] stood at 128 µg/mL; in [2], 256 µg/mL; in assay [3], 64 µg/mL; in [4] it was 64 µg/mL; in [5] it was 32 µg/mL; in [6], 32 µg/mL. For the same compound, the minimum inhibitory concentration (MIC) in assay [7] is 32 µg/mL; in [8] it was 64 µg/mL; in assay [9] it was more than 256 µg/mL; in assay [10], more than 256 µg/mL. In addition, the IC50 in assay [11] is more than 100 µg/mL. In addition, the outcome in assay [12], in [13], in assay [16] and in assay [17] was Active. The outcome in assay [14] and in [15] was inactive.

Consider `CCCCCCCCCCCCNC[C@H]1O[C@H](O[C@@H]2[C@@H](O)[C@H](O[C@H]3O[C@H](CN)[C@@H](O)[C@H](O)[C@H]3O)[C@@H](N)C[C@H]2N)[C@H](O)[C@@H](N)[C@@H]1O.Cl.Cl.Cl.Cl.Cl`, for which the MIC in assay [1] is 16 µg/mL; in assay [2] it was 64 µg/mL; in [18] it was 32 µg/mL; in [19] it was 16 µg/mL; in [20] it was 32 µg/mL; in assay [21], 32 µg/mL. For the same compound, the MIC turned out to be 2 µg/mL in [3]; 2 µg/mL in assay [4]; 2 µg/mL in assay [5]; 2 µg/mL in assay [6]; 16 µg/mL in [7]; 64 µg/mL in assay [8]. Moreover, the figures for the minimum inhibitory concentration (MIC) in assay [9] and in assay [10] were 64 µg/mL and 32 µg/mL, respectively. In [11], the IC50 was more than 100 µg/mL.

On to `CCCCCCCCCCCCCCNC[C@H]1O[C@H](O[C@@H]2[C@@H](O)[C@H](O[C@H]3O[C@H](CN)[C@@H](O)[C@H](O)[C@H]3O)[C@@H](N)C[C@H]2N)[C@H](O)[C@@H](N)[C@@H]1O.Cl.Cl.Cl.Cl.Cl`, for which the MIC worked out at 4 µg/mL in assay [1]; 8 µg/mL in [2]; 8 µg/mL in assay [18]; 4 µg/mL in [19]; 4 µg/mL in assay [20]; 4 µg/mL in [21]. For the same compound, the minimum inhibitory concentration (MIC) in [3] was found to be 2 µg/mL; in assay [4], 2 µg/mL; in assay [5], 2 µg/mL; in assay [6] it was 2 µg/mL; in assay [7] it was 32 µg/mL; in [8], 16 µg/mL. Further, the MIC in assay [9] and in assay [10] was 16 µg/mL in each case. Moreover, the IC50 in [11] worked out at 60.8 µg/mL.

On to `CCCCCCCCCCCCSC[C@H]1O[C@H](O[C@@H]2[C@@H](O)[C@H](O[C@H]3O[C@H](CN)[C@@H](O)[C@H](O)[C@H]3O)[C@@H](N)C[C@H]2N)[C@H](O)[C@@H](N)[C@@H]1O.Cl.Cl.Cl.Cl`, for which the MIC is 16 µg/mL in assay [1]; 16 µg/mL in assay [2]; 32 µg/mL in assay [18]; 16 µg/mL in assay [19]; 32 µg/mL in assay [20]; 32 µg/mL in [21]. In addition, the minimum inhibitory concentration (MIC) in assay [3] is 2 µg/mL; in [4], 2 µg/mL; in assay [5], 2 µg/mL; in assay [6], 4 µg/mL; in [7] it was 16 µg/mL; in assay [8], 32 µg/mL. In addition, the MIC was 32 µg/mL in [9] and 16 µg/mL in [10]. In addition, in [11], the IC50 was more than 100 µg/mL.

(Values after ChEMBL document CHEMBL4359907, “Scalable and cost-effective tosylation-mediated synthesis of antifungal and fungal diagnostic 6″-Modified amphiphilic kanamycins” (Eur J Med Chem, 2019).)
